Our source for the solubility in water values is US9090571B2, “Meglumine salt of 6-fluoro-3-hydroxy-2-pyrazine carboxamide” (TOYAMA CHEMICAL CO., LTD., priority 2010, dated 2015).

Molecules are shown by their SMILES.

This series in a line: Solubility in water (statement). The format is physicochemical.

In the case of `NC(=O)c1nc(F)c[nH]c1=O` [Compound A, 6-fluoro-3-hydroxy-2-pyrazinecarboxamide], the solubility in water result was “low solubility in water”.
The value for `CNC[C@H](O)[C@@H](O)[C@H](O)[C@H](O)CO.NC(=O)c1nc(F)cnc1O` [Salt A, meglumine salt of 6-fluoro-3-hydroxy-2-pyrazinecarboxamide] was “high”.
